In one experiment the target is WDR5 (Homo sapiens (Human), UniProt P61964). Put plainly: TR-FRET binding assay (displacement of 10mer-Thr-FAM probe from WDR5). The conditions noted are these: read-out: Ki for Inhibition of WDR5 by TR-FRET assay.
Consider `C[C@H](NC(=O)c1cc(Cn2ccoc2=N)cc(-c2cccnc2C(F)(F)F)c1)c1ccc(F)c(Cl)c1` [Example 257, (S)—N-(1-(3-Chloro-4-fluorophenyl)ethyl)-3-((2-iminooxazol-3(2H)-yl)methyl)-5-(2-(trifluoromethyl)pyridin-3-yl)benzamide], for which the Ki was determined as 2 nM.
On the same count and under the same terms, to `C[C@H](NC(=O)c1cc(Cn2ccoc2=N)cc(-c2cccnc2C(F)(F)F)c1)c1ccc(C(F)(F)F)cc1` [Example 258] belongs 5.8 nM; to `CCn1cc(-c2cc(CN3CCOC3=N)cc(C(=O)NCC3CCOCC3)c2)c(C(F)(F)F)n1` [Example 288, 3-(1-Ethyl-3-(trifluoromethyl)-1H-pyrazol-4-yl)-5-((2-iminooxazolidin-3-yl)methyl)-N-((tetrahydro-2H-pyran-4-yl)methyl)benzamide], 8.7 nM; to `Cc1cc([C@@H](NC(=O)c2cc(CN3C[C@H](C)OC3=N)cc(-c3cccnc3C(F)(F)F)c2)C2CC2)ccc1F` [Example 296, N—((S)-cyclopropyl(4-fluoro-3-methylphenyl)methyl)-3-(((S)-2-imino-5-methyloxazolidin-3-yl)methyl)-5-(2-(trifluoromethyl)pyridin-3-yl)benzamide], 7 nM.
In the case of `Cc1cc([C@@H](NC(=O)c2cc(CN3CCSC3=N)cc(-c3ccc(F)cc3C#N)c2)C2CC2)ccc1F` [Example 316], the Ki was 0.91 nM.
For the compound `N=C1SCCN1Cc1cc(C(=O)N[C@H](c2ccc(Cl)c(Cl)c2)C2CC2)cc(-c2ncc(F)cc2C(F)(F)F)c1` [Example 317, (S)—N-(Cyclopropyl(3,4-dichlorophenyl)methyl)-3-(5-fluoro-3-(trifluoromethyl)pyridin-2-yl)-5-((2-iminothiazolidin-3-yl)methyl)benzamide], the Ki is 0.28 nM.
On the same count and under the same terms, to `N=C1SCCN1Cc1cc(C(=O)N[C@H](c2ccc(F)c(F)c2)C2CC2)cc(-c2cccnc2C(F)(F)F)c1` [Example 318, (S)—N-(Cyclopropyl(3,4-difluorophenyl)methyl)-3-((2-iminothiazolidin-3-yl)methyl)-5-(2-(trifluoromethyl)pyridin-3-yl)benzamide] belongs 0.29 nM; to `CCn1cc(-c2cc(CN3CCSC3=N)cc(C(=O)NCc3ccc(=O)n(C)c3)c2)c(C(F)(F)F)n1` [Example 323, 3-(1-Ethyl-3-(trifluoromethyl)-1H-pyrazol-4-yl)-5-((2-iminothiazolidin-3-yl)methyl)-N-((1-methyl-6-oxo-1,6-dihydropyridin-3-yl)methyl)benzamide], 1.8 nM.
Same read-out and setting: then `Cc1cc([C@@H](NC(=O)c2cc(CN3CCSC3=N)cc(-c3cn(C)nc3C(F)(F)F)c2)C2CC2)ncc1F` [Example 326, (S)—N-(Cyclopropyl(5-fluoro-4-methylpyridin-2-yl)methyl)-3-((2-iminothiazolidin-3-yl)methyl)-5-(1-methyl-3-(trifluoromethyl)-1H-pyrazol-4-yl)benzamide], with under 0.1 nM; and `Cc1cc([C@@H](NC(=O)c2cc(Cn3cccc(F)c3=N)cc(-c3cc(C(F)(F)F)nn3C)c2)C2CC2)ccc1F` [Example 345, (S)—N-(Cyclopropyl (4-fluoro-3-methylphenyl)methyl)-3-((3-fluoro-2-iminopyridin-1(2H)-yl)methyl)-5-(1-methyl-3-(trifluoromethyl)-1H-pyrazol-5-yl)benzamide], with 2.4 nM; and `Cc1cc([C@@H](NC(=O)c2cc(Cn3cc(F)ccc3=N)cc(-c3cn(C)nc3C(F)(F)F)c2)C2CC2)ccc1F` [Example 353, (S)—N-(cyclopropyl(4-fluoro-3-methylphenyl)methyl)-3-((5-fluoro-2-iminopyridin-1(2H)-yl)methyl)-5-(1-methyl-3-(trifluoromethyl)-1H-pyrazol-4-yl)benzamide], with under 0.1 nM.

The experiment is the same for the next values; noted with them: read-out: Ki for Inhibition of WDR5 by TR-FRET assay; TR-FRET, 10mer-Thr-FAM probe, WDR5-His tag 2 nM, pH 7.0.
As for `CCc1coc(=N)n1Cc1cc(C(=O)N[C@H](c2ccc(F)c(C)c2)C2CC2)cc(-c2cccnc2C(F)(F)F)c1` [Example 256, (S)—N-(Cyclopropyl(4-fluoro-3-methylphenyl)methyl)-3-((4-ethyl-2-iminooxazol-3(2H)-yl)methyl)-5-(2-(trifluoromethyl)pyridin-3-yl)benzamide], the Ki came out at 2.7 nM.
The same measure, in the same setting: to `C[C@H](NC(=O)c1cc(Cn2ccoc2=N)cc(-c2cccnc2C(F)(F)F)c1)c1ncc(F)cn1` [Example 262, (S)—N-(1-(5-Fluoropyrimidin-2-yl)ethyl)-3-((2-iminooxazol-3(2H)-yl)methyl)-5-(2-(trifluoromethyl)pyridin-3-yl)benzamide] belongs over 33 nM.
Same read-out and setting: then `Cc1cc([C@@H](NC(=O)c2cc(Cn3ccoc3=N)cc(C3CC3)c2)C2CC2)ccc1F` [Example 265, (S)-3-cyclopropyl-N-(cyclopropyl(4-fluoro-3-methylphenyl)methyl)-5-((2-iminooxazol-3(2H)-yl)methyl)benzamide], with 0.78 nM.
Same read-out and setting: to `Cc1cc([C@@H](NC(=O)c2cc(CN3CCCOC3=N)cc(-c3cccnc3C(F)(F)F)c2)C2CC2)ccc1F` [Example 266, (S)—N-(Cyclopropyl(4-fluoro-3-methylphenyl)methyl)-3-((2-imino-1,3-oxazinan-3-yl)methyl)-5-(2-(trifluoromethyl)pyridin-3-yl)benzamide] belongs 16 nM; to `N=c1occn1Cc1cc(C(=O)N[C@H](c2ccc(Cl)c(Cl)c2)C2CC2)cc(-c2ccc(F)cc2OC(F)F)c1` [Example 270, (S)—N-(Cyclopropyl(3,4-dichlorophenyl)ethyl)-2′-(difluoromethoxy)-4′-fluoro-5-((2-iminooxazol-3(2)-yl)methyl)-[1,1′-biphenyl]-3-carboxamide], 0.18 nM.
Regarding `N=c1occn1Cc1cc(C(=O)N[C@H](c2ccc(Cl)c(Cl)c2)C2CC2)cc(-c2cccnc2C(F)(F)F)c1` [Example 271, (S)—N-(Cyclopropyl(3,4-dichlorophenyl)methyl)-3-((2-iminooxazol-3(2H)-yl)methyl)-5-(2-(trifluoromethyl)pyridin-3-yl)benzamide], the Ki turned out to be 0.72 nM.
On the same count and under the same terms, to `Cc1cc(F)ccc1-c1cc(Cn2ccoc2=N)cc(C(=O)NCc2ccc(Cl)c(Cl)c2)n1` [Example 277, N-(3,4-Dichlorobenzyl)-6-(4-fluoro-2-methylphenyl)-4-((2-iminooxazol-3(2H)-yl)methyl)picolinamide] belongs over 33 nM; to `Cc1cc([C@@H](NC(=O)c2cc(CN3CCOC3=N)cc(-c3cn(CC(C)C)nc3C(F)(F)F)c2)C2CC2)ccc1F` [Example 278, (S)—N-(Cyclopropyl(4-fluoro-3-methylphenyl)methyl)-3-((2-iminooxazolidin-3-yl)methyl)-5-(1-isobutyl-3-(trifluoromethyl)-1H-pyrazol-4-yl)benzamide], 0.34 nM.
On the same count and under the same terms, then `CCn1cc(-c2cc(CN3CCOC3=N)cc(C(=O)NCC3CCCO3)c2)c(C(F)(F)F)n1` (centres unmarked) [Example 289, 3-(1-Ethyl-3-(trifluoromethyl)-1H-pyrazol-4-yl)-5-((2-iminooxazolidin-3-yl)methyl)-N-((tetrahydrofuran-2-yl)methyl)benzamide], with 31 nM.
As for `CCn1cc(-c2cc(CN3CCOC3=N)cc(C(=O)NCC3CCOC3)c2)c(C(F)(F)F)n1` (centres unmarked) [Example 290, 3-(1-Ethyl-3-(trifluoromethyl)-1H-pyrazol-4-yl)-5-((2-iminooxazolidin-3-yl)methyl)-N-((tetrahydrofuran-3-yl)methyl)benzamide], the Ki amounted to 20 nM.
Same read-out and setting: to `Cc1cc([C@@H](NC(=O)c2cc(CN3C[C@@H](C)OC3=N)cc(-c3cccnc3C(F)(F)F)c2)C2CC2)ccc1F` [Example 297, N—((S)-cyclopropyl(4-fluoro-3-methylphenyl)methyl)-3-(((R)-2-imino-5-methyloxazolidin-3-yl)methyl)-5-(2-(trifluoromethyl)pyridin-3-yl)benzamide] belongs 2.3 nM.
Turning to `CCOc1c(C(=O)N[C@H](c2ccc(F)c(C)c2)C2CC2)cc(Cn2ccoc2=N)cc1-c1cn(C)nc1C(F)(F)F` [Example 304], the Ki was under 0.1 nM.
As for `N=C1SCCN1Cc1cc(C(=O)N[C@H](c2ccc(Cl)c(Cl)c2)C2CC2)cc(-c2cccnc2C(F)(F)F)c1` [Example 311, (S)—N-(Cyclopropyl(3,4-dichlorophenyl)methyl)-3-((2-iminothiazolidin-3-yl)methyl)-5-(2-(trifluoromethyl)pyridin-3-yl)benzamide], the Ki came to 1.49 nM.
Same read-out and setting: to `Cc1cc([C@@H](NC(=O)c2cc(CN3CCSC3=N)cc(-c3cn(CC(C)C)nc3C(F)(F)F)c2)C2CC2)ccc1F` [Example 313, (S)—N-(Cyclopropyl(4-fluoro-3-methylphenyl)methyl)-3-((2-iminothiazolidin-3-yl)methyl)-5-(1-isobutyl-3-(trifluoromethyl)-1H-pyrazol-4-yl)benzamide] belongs 1.2 nM; to `Cc1cc([C@@H](NC(=O)c2cc(CN3CCSC3=N)cc(-c3cn(C4CCCC4)nc3C(F)(F)F)c2)C2CC2)ccc1F` [Example 314, (S)-3-(1-Cyclopentyl-3-(trifluoromethyl)-1H-pyrazol-4-yl)-N-(cyclopropyl(4-fluoro-3-methylphenyl)methyl)-5-((2-iminothiazolidin-3-yl)methyl)benzamide], 4 nM; to `Cc1cc([C@@H](NC(=O)c2cc(CN3CCCSC3=N)cc(-c3cccnc3C(F)(F)F)c2)C2CC2)ccc1F` [Example 315, (S)—N-(Cyclopropyl(4-fluoro-3-methylphenyl)methyl)-3-((2-imino-1,3-thiazinan-3-yl)methyl)-5-(2-(trifluoromethyl)pyridin-3-yl)benzamide], 1 nM.
With `CC(C)n1cc(-c2cc(CN3CCSC3=N)cc(C(=O)N[C@H](c3ccc(F)c(F)c3)C3CC3)c2)c(C(F)(F)F)n1` [Example 319, (S)—N-(Cyclopropyl(3,4-difluorophenyl)methyl)-3-((2-iminothiazolidin-3-yl)methyl)-5-(1-isopropyl-3-(trifluoromethyl)-1H-pyrazol-4-yl)benzamide], the Ki turned out to be 0.32 nM.
On the same count and under the same terms, to `Cc1cc([C@@H](NC(=O)c2cc(Cn3ccccc3=N)cc(-c3cc(C(F)(F)F)nn3C)c2)C2CC2)ccc1F` [Example 346, (S)—N-(Cyclopropyl(4-fluoro-3-methylphenyl)methyl)-3-((2-iminopyridin-(2H)-yl)methyl)-5-(1-methyl-3-(trifluoromethyl)-1H-pyrazol-5-yl)benzamide] belongs 1.6 nM.

What is called Ki is a measure of affinity in units of concentration, obtained from inhibition or displacement.

Source of the values: patent US10844044B2 (Vanderbilt University, priority 2018, dated 2020).
